# From ChEMBL document CHEMBL1201862, “PubChem BioAssay data set” (2004)
# The source made the active and inactive calls.
# Tests used:
# [1] = Luminescence-based cell-based high throughput dose response assay to identify activators of the DAF-12 from the parasite S. stercoralis (ssDAF-12).; type: functional
# [2] = HEK-293T cell viability reduction – luminescence, B-cell screen hits, cytotoxicity control for BCR NF-kB inhibitor project, dose response (AID 489021); type: functional, cell-based;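 note: HEK-293T cells carrying an NF-kB luciferase reporter; cells exposed to compound for about 14 hours before viability readout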
# [3] = intracellular Trypanosoma cruzi inhibitors in host cells – cell-based, plate reader, cherry-pick samples, set 3, dose response (AID 651818); type: functional;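 note: compounds incubated with infected cells for about four days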
# [4] = biological target: T1, Carboxy-terminal domain RNA polymerase II polypeptide A small phosphatase 1 (Homo sapiens, UniProt Q9GZU7); test: CTDSP1 inhibitors, concentration-response, biochemical, absorbance readout, ultra-high-throughput screen actives (AID 540297); type: functional
# T1 sequence (Q9GZU7 whole entry): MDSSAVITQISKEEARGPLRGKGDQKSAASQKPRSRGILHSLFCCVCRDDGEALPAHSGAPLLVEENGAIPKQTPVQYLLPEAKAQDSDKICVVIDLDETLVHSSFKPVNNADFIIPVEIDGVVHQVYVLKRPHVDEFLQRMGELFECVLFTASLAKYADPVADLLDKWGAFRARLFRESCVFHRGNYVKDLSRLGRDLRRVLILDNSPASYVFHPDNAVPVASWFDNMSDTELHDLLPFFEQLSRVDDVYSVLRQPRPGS
# [5] = biological target: T2, Caspase-6 (Homo sapiens, UniProt P55212); test: inhibition of CASP6 peptide cleavage – biochemical, VEID-R110 fluorescence, cherry-pick, dose response (AID 720632)
# T2 sequence (P55212 whole entry): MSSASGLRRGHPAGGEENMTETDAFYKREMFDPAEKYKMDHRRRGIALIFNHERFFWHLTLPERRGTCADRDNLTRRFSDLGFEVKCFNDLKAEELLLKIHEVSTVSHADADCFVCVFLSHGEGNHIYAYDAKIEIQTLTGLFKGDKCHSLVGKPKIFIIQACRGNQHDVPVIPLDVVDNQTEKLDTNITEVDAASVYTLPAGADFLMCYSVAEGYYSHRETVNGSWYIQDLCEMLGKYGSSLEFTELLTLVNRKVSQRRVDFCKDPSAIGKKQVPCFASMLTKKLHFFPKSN
# [6] = NIH3T3 cell viability loss – ATP luminescence, mouse fibroblasts, counter-screen, dose response (AID 2010); type: functional, cell-based;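 note: cells exposed to compound for about 90 hours before reading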
# [7] = Trypanosoma cruzi growth suppression in host cells – NIH3T3 host cells, beta-gal luminescence, confirmation (AID 2044); type: functional, cell-based;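 note: intracellular parasites grown in NIH/3T3 mouse fibroblasts as host cells; luminescent beta-galactosidase reporter signal from transgenic T. cruzi replicating inside host cells; inhibitors lower the luminescence signal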
# [8] = microbe, parasite or virus in culture; type: functional; details: Mycobacterium tuberculosis
# [9] = biological target: T3, Fatty acid synthase (Homo sapiens, UniProt P49327); test: inhibition of human FAS-TE enzyme activity – biochemical, kinetic fluorescence intensity, dose response (AID 624326); type: functional;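 note: rate of fluorescence rise from hydrolysis of a fluorogenic O-methyl fluorescein ester substrate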
# T3 sequence (P49327 whole entry): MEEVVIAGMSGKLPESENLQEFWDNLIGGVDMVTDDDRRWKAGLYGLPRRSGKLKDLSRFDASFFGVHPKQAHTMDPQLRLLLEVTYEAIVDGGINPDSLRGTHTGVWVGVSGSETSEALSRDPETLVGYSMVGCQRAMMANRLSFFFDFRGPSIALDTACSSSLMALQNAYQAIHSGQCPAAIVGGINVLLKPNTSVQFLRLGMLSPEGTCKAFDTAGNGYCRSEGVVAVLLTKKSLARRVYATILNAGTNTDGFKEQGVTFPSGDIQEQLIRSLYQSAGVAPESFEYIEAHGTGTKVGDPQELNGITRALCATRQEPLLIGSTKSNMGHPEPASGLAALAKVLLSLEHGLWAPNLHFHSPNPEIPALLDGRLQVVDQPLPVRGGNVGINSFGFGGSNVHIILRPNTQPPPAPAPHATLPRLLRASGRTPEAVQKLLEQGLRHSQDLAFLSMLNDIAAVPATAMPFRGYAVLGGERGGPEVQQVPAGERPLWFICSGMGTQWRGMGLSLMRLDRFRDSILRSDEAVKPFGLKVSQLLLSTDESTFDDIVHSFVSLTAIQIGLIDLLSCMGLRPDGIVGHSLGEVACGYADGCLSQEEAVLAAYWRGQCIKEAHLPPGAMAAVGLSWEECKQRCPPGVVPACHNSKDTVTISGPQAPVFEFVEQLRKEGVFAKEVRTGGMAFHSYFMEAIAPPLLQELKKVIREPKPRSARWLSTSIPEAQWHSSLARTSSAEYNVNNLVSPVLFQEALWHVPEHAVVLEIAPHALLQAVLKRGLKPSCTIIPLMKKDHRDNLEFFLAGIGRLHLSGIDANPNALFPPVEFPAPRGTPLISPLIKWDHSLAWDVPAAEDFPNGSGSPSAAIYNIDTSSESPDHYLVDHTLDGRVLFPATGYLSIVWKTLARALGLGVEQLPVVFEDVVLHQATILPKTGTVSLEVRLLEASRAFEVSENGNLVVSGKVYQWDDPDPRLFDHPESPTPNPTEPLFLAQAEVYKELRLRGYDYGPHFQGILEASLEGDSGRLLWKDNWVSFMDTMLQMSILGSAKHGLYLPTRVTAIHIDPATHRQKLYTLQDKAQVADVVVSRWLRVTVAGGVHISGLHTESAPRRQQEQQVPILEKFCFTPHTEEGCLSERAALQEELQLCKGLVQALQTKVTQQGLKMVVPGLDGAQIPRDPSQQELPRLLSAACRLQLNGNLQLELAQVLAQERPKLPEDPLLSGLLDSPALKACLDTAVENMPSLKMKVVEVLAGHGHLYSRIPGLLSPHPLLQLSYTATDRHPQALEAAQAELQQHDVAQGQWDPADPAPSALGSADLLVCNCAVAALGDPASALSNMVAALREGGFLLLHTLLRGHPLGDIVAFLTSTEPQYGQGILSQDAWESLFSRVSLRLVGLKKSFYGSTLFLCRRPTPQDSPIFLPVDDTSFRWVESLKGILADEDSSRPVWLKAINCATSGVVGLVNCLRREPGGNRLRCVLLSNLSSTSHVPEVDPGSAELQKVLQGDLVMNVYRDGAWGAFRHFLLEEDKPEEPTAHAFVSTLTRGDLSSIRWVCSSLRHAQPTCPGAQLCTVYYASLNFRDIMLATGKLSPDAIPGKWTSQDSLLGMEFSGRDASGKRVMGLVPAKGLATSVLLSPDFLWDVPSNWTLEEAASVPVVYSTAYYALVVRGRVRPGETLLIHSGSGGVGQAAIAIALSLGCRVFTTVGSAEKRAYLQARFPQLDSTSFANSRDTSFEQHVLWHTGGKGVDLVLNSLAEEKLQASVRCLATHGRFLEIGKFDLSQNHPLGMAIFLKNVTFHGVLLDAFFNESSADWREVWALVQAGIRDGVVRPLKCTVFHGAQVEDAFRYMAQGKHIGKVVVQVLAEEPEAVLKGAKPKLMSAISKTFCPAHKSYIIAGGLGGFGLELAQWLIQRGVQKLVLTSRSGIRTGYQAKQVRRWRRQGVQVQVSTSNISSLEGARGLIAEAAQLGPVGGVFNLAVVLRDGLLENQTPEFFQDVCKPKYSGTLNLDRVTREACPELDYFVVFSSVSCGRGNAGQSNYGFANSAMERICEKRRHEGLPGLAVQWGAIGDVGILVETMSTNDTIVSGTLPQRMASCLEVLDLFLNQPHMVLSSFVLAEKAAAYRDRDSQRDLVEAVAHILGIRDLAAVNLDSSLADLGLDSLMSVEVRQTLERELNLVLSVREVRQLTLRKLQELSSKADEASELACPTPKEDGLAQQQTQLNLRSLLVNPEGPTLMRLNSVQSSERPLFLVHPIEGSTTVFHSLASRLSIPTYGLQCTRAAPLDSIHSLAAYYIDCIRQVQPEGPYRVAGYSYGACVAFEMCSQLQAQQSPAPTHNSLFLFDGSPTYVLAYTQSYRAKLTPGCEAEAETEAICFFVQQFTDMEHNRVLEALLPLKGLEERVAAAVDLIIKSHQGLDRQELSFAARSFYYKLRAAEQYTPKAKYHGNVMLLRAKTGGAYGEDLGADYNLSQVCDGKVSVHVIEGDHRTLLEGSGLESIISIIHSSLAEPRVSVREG
# [10] = biological target: T3, Fatty acid synthase; test: inhibition of human FAS-TE enzyme activity – biochemical, endpoint fluorescence intensity, uHTS hits, dose response (AID 624327); type: functional;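 note: fluorescence from hydrolysis of an O-methyl fluorescein acyl ester substrate by the enzyme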
# [11] = biological target: Prothrombin (Homo sapiens, UniProt P00734); test: Thrombin 1536 HTS Dose Response Confirmation. [Related pubchem assays: 1046 (Thrombin 1536 HTS; hits were confirmed in this assay)]; type: functional
# [12] = biological target: T4, Heat shock factor protein 1 (Mus musculus, UniProt P38532); test: decrease of HSF1-responsive luciferase luminescence – cell-based, NIH3T3, dose retest, confirmation (AID 2382); type: functional;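 note: NIH3T3 fibroblasts with HSF1-driven luciferase reporter stressed by proteasome inhibitor MG132; luminescence from HSF1-driven luciferase expression after 8 hours of MG132 stress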
# T4 sequence (P38532 whole entry): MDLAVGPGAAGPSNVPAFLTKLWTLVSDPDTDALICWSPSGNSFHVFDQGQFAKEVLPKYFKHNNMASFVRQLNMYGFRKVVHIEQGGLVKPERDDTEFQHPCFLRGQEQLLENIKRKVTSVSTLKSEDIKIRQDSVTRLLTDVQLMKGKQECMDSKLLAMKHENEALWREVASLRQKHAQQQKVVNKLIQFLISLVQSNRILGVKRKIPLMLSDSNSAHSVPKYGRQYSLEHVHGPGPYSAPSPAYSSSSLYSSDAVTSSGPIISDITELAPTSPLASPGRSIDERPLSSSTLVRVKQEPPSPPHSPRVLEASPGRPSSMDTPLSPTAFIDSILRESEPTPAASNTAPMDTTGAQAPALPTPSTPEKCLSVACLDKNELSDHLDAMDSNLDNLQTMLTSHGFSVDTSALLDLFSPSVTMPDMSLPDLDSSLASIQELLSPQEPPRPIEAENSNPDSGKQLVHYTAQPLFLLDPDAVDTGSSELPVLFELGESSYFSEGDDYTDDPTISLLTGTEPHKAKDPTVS
# [13] = biological target: T5, Adenosylmethionine-8-amino-7-oxononanoate aminotransferase (Mycobacterium tuberculosis, UniProt P9WQ81); test: Mycobacterium tuberculosis BioA enzyme inhibitor Measured in Biochemical System Using Plate Reader - 2163-02_Inhibitor_Dose_CherryPick_Activity.; type: functional, Mycobacterium tuberculosis UT205
# T5 sequence (P9WQ81 whole entry): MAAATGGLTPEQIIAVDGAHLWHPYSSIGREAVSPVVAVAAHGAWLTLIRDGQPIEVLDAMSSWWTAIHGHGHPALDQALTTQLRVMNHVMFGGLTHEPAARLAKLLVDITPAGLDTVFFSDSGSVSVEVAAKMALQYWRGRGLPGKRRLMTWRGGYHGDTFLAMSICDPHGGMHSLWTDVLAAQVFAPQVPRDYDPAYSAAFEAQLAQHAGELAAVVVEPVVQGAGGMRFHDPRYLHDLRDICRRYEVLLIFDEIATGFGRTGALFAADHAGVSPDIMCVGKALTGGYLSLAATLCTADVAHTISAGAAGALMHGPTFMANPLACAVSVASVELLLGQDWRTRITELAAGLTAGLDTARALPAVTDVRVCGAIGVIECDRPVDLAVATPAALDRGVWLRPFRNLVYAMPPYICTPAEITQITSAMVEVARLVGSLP
# [14] = NIH-3T3 fibroblast cytotoxicity, dose response, cytotoxicity control, cell-based, fluorescence, Alamar Blue, secondary assay (AID 2327); type: functional;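 note: NIH-3T3 mouse fibroblasts cultured with fluconazole at 8 µg/mL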
# [15] = fluconazole-exposed Candida albicans growth modulators – fluorescence, retest, confirmation (AID 2467); type: functional, cell-based
compound,measurement,setting,value
Nc1nc(=O)n(C2CC(O)C(CO)O2)cc1Cl (stereo not given),IC50,[1],> 67.6 µM (inactive)
CN1CCN(C(=O)c2ccccc2N(Cc2ccccc2)S(=O)(=O)c2ccccc2)CC1,IC50,[2],> 80 µM (inactive)
C[C@H]1CN([C@@H](C)CO)C(=O)c2cccc(NC(=O)Nc3ccccc3)c2O[C@H]1CN(C)C(=O)Nc1ccc2c(c1)OCO2,AC50,[3],20 µM (inactive)
COc1cc(C(=O)Nc2cc(C)c(OCC(=O)N3CCOCC3)c(C)c2)cc(OC)c1OC,IC50,[2],> 80 µM (inactive)
O=C(NNC(=O)c1ccccc1Br)c1ccc2nc[nH]c2c1,IC50,[4],7.34 µM (active)
same,AC50,[5],23.6 µM (active)
CCC1C(c2ccccc2)N(C)C(c2ccccc2)CC1(O)c1ccccc1 (stereo not given),EC50,[6],> 60 µM (not active)
same,EC50,[7],2.31 µM (active)
same,CC50,[8],> 40 µM (active)
O=C(NCc1ccc(F)cc1)C(C(=O)NCc1ccc(F)cc1)c1ncc(C(F)(F)F)cc1Cl,IC50,[9],11.8 µM (active)
same,IC50,[10],7.79 µM (active)
Cc1ccc(N2C(S)=NC3c4ccccc4OC2(C)C3C(=O)N(C)C)cc1 (stereo not given),IC50,[11],> 50 µM (inconclusive)
O=C(COC(=O)c1cc([N+](=O)[O-])ccc1N1CCOCC1)c1ccc(F)cc1,IC50,[9],9.03 µM (active)
same,IC50,[10],5.45 µM (active)
CCCc1nc(NC(C)=O)c(C#N)c(-c2ccco2)c1CC,IC50,[11],> 50 µM (not active)
CCN(CC)Cc1nc(O)c2c(n1)-c1ccccc1CC2(CC)CC,CC50,[8],> 40 µM (active)
C/C(=C/C(=O)N1CCN(C)CC1)C(=O)O,EC50,[12],36.8 µM (active)
same,IC50,[11],> 50 µM (not active)
C[C@@H]1CN([C@@H](C)CO)C(=O)Cc2cc(NC(=O)Nc3ccccc3)ccc2O[C@@H]1CN(C)Cc1ccc(C(=O)Nc2ccccc2N)cc1,AC50,[3],2.04 µM (active)
O=C(C[n+]1cc(-c2ccc(Cl)cc2)n2c1CCC2)N1c2ccccc2Sc2ccccc21,AC50,[13],6.34 µM (active)
same,EC50,[14],> 160 µM (inconclusive)
same,EC50,[15],> 38 µM (not active)
O=[N+]([O-])c1ccc(Sc2n[nH]c(-c3ccc(Cl)cc3Cl)n2)nc1,IC50,[9],8.25 µM (active)
same,IC50,[10],7.15 µM (active)
O=C(CCCN1C(=O)/C(=C/c2ccccc2Cl)SC1=S)Nc1cccnc1,IC50,[2],> 80 µM (inactive)
